From patent US11107993B2, “Organic compound and organic electroluminescent element comprising same” (MATERIAL SCIENCE CO., LTD., priority 2015, dated 2021) come the findings set out here.

This series is described as follows: Evaluation of solubility of organic compound in hexane, toluene and dichloromethane. The following applies: room temperature; for solubility compared with Compound 9: summary of Table 3, toluene, dichloromethane. Format: physicochemical. Here is the method:
Evaluation of Solubility of Organic Compound
The solubility in hexane, toluene and dichloromethane was measured for the compounds of Synthesis Example 9, and Comparative Synthesis Examples 2 and 3.

As for `Cc1ccc(C)c(N(c2cc(C(C)(C)C)ccc2C)c2ccc3ccc4c(N(c5cc(C)ccc5C)c5cc(C(C)(C)C)ccc5C)ccc5ccc2c3c54)c1` [Compound 1-B], the solubility in hexane result is reported as “Insoluble” and the “solubility compared with Compound 9” value was “significantly lower solubility than Compound 9”.

With `CCc1cc(N(c2cc(C)ccc2C)c2cc(C(C)(C)C)ccc2C)c2ccc3c(CC)cc(N(c4cc(C)ccc4C)c4cc(C(C)(C)C)ccc4C)c4ccc1c2c34` [Compound 1-C], the solubility in hexane result is “Insoluble” and the “solubility compared with Compound 9” value is “significantly lower solubility than Compound 9”.
